Activity calls are given as the source filed them. The calls are words filed in the database; no cut-off is given here.
How the values were obtained:
A549 [1] = assay: Induction of apoptosis in human A549 cells assessed as early apoptotic cells at 62.5 nM incubated for 24 hrs by annexin V-FITC/PI staining based flow cytometry analysis (reference value: 0.78%); format: functional
[2] = molecular target: T1, Retinoic acid receptor RXR-alpha (Homo sapiens) (UniProt P19793); assay: Antagonist activity at RXRalpha (unknown origin) transfected in human HeLa cells assessed as inhibition of CD3254- induced receptor transactivation incubated for 24 hrs by dual luciferase reporter assay; format: cell-based; details: filed as antagonist, dose 12.5-100 µM
T1 sequence (whole entry): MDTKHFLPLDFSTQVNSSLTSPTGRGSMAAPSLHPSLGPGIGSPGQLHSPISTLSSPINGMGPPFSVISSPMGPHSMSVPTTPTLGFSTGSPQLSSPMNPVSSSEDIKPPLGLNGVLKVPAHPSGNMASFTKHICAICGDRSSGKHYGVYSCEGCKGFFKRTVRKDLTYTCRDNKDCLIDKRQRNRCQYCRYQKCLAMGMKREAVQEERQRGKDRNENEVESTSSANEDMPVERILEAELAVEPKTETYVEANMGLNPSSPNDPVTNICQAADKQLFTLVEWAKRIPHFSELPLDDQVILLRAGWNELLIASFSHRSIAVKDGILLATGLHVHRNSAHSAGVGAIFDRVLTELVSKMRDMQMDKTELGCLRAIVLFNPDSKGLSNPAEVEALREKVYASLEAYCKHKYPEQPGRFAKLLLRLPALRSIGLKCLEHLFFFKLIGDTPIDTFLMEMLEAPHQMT

A549 [3] = assay: Induction of apoptosis in human A549 cells assessed as live cells at 250 nM incubated for 24 hrs by annexin V-FITC/PI staining based flow cytometry analysis (reference value: 93.2%); format: functional
[4] = Tmax in Sprague-Dawley rat at 25 mg/kg, ip measured for 48 hrs by LC-MS/MS analysis; format: ADME, organism-based; details: in vivo
MDA-MB-231 [5] = assay: Induction of cell cycle arrest in human MDA-MB-231 cells assessed as accumulation of cells at S phase at 31.25 nM incubated for 12 hrs by flow cytometry analysis (reference value: 40.89%); format: functional
A549 [6] = assay: Induction of cell cycle arrest in wild type human A549 cells assessed as accumulation of cells at S phase at 125 nM incubated for 12 hrs by DAPI staining based flow cytometry analysis (reference value: 41.12 %); format: functional
MDA-MB-231 [7] = assay: Induction of RXRalpha-mediated mitotic arrest in human MDA-MB-231 cells assessed as accumulation of pRXRalpha protein at 7.8 to 500 nM measured after 24 hrs by Western blot analysis; format: functional, cell-based; details: dose 7.8-500 nM
MDA-MB-231 [8] = assay: Antitumor activity against human MDA-MB-231 cells xenografted in BALB/c nude mouse assessed as reduction in Ki67 protein expression at 25 mg/kg/day, ip administered for 15 days by immunohistochemical analysis; format: functional, organism-based; details: time 15.0 day
A549 [9] = assay: Induction of cell cycle arrest in human A549 cells assessed as accumulation of cells at G1 phase at 62.5 nM incubated for 12 hrs by flow cytometry analysis (reference value: 59.57%); format: functional
A549 [10] = assay: Induction of cell cycle arrest in wild type human A549 cells assessed as accumulation of cells at G2 phase at 125 nM incubated for 12 hrs by DAPI staining based flow cytometry analysis (reference value: 21.99 %); format: functional
A549 [11] = assay: Antiproliferative activity against RXRalpha knockout human A549 cells assessed as inhibition of cell growth incubated for 72 hrs by MTT assay; format: functional, cell-based; details: A549, 72 h
MDA-MB-231 [12] = assay: Induction of apoptosis in human MDA-MB-231 cells assessed as live cells at 31.25 nM incubated for 24 hrs by annexin V-FITC/PI staining based flow cytometry analysis (reference value: 91.3%); format: functional
A549 [13] = assay: Induction of cell cycle arrest in human A549 cells assessed as accumulation of cells at S phase at 125 nM incubated for 12 hrs by flow cytometry analysis (reference value: 31.81%); format: functional
MDA-MB-231 [14] = assay: Induction of apoptosis in human MDA-MB-231 cells assessed as live cells at 62.5 nM incubated for 24 hrs by annexin V-FITC/PI staining based flow cytometry analysis (reference value: 91.3%); format: functional
A549 [15] = assay: Antiproliferative activity against human A549 cells assessed as inhibition of cell proliferation incubated for 72 hrs by MTT assay; format: functional, cell-based; details: A549, 72 h
MDA-MB-231 [16] = assay: Induction of cell cycle arrest in human MDA-MB-231 cells assessed as accumulation of cells at G1 phase at 62.5 nM incubated for 12 hrs by flow cytometry analysis (reference value: 43.2%); format: functional
A549 [17] = assay: Induction of cell cycle arrest in human A549 cells assessed as accumulation of cells at S phase at 15.625 nM incubated for 12 hrs by flow cytometry analysis (reference value: 31.81%); format: functional; details: 0.01562 µM
A549 [18] = assay: Induction of apoptosis in human A549 cells assessed as live cells at 62.5 nM incubated for 24 hrs by annexin V-FITC/PI staining based flow cytometry analysis (reference value: 93.2%); format: functional
[19] = molecular target: Nuclear receptor subfamily 4immunitygroup A member 1 (Homo sapiens) (UniProt P22736); assay: Antagonist activity at Nur77 (unknown origin) transfected in human HeLa cells at 31.25 uM incubated for 24 hrs by dual luciferase reporter assay; format: cell-based
[20] = Cytotoxicity against human L02 cells assessed as inhibition of cell proliferation incubated for 72 hrs by MTT assay; format: toxicity, cell-based
MDA-MB-231 [21] = assay: Induction of cell cycle arrest in human MDA-MB-231 cells assessed as accumulation of cells at G2 phase at 31.25 nM incubated for 12 hrs by flow cytometry analysis (reference value: 15.91%); format: functional
A549 [22] = assay: Induction of apoptosis in human A549 cells assessed as early apoptotic cells at 125 nM incubated for 24 hrs by annexin V-FITC/PI staining based flow cytometry analysis (reference value: 0.78%); format: functional
A549 [23] = assay: Antiproliferative activity against wild type human A549 cells assessed as inhibition of cell growth incubated for 72 hrs by MTT assay; format: functional, cell-based; details: A549, 72 h
A549 [24] = assay: Antiproliferative activity against human A549 cells assessed as cell viability rate at 5 uM incubated for 72 hrs by MTT assay relative to control; format: functional
MDA-MB-231 [25] = assay: Induction of cell cycle arrest in human MDA-MB-231 cells assessed as accumulation of cells at G1 phase at 31.25 nM incubated for 12 hrs by flow cytometry analysis (reference value: 43.2%); format: functional
A549 [26] = assay: Induction of apoptosis in human A549 cells assessed as dead cells at 62.5 nM incubated for 24 hrs by annexin V-FITC/PI staining based flow cytometry analysis (reference value: 0.75%); format: functional
A549 [27] = assay: Induction of apoptosis in human A549 cells assessed as early apoptotic cells at 31.25 nM incubated for 24 hrs by annexin V-FITC/PI staining based flow cytometry analysis (reference value: 0.78%); format: functional
[28] = AUC (0 to infinity) in Sprague-Dawley rat at 25 mg/kg, ip measured for 48 hrs by LC-MS/MS analysis; format: ADME, organism-based; parameters: time 48 hrs, dose 25 mg/kg, route ip; details: in vivo
MDA-MB-231 [29] = assay: Induction of cell cycle arrest in human MDA-MB-231 cells assessed as accumulation of cells at G2 phase at 62.5 nM incubated for 12 hrs by flow cytometry analysis (reference value: 15.91%); format: functional

Nuclear receptor subfamily 4immunitygroup A member 1 (Homo sapiens), sequence (P22736 whole entry): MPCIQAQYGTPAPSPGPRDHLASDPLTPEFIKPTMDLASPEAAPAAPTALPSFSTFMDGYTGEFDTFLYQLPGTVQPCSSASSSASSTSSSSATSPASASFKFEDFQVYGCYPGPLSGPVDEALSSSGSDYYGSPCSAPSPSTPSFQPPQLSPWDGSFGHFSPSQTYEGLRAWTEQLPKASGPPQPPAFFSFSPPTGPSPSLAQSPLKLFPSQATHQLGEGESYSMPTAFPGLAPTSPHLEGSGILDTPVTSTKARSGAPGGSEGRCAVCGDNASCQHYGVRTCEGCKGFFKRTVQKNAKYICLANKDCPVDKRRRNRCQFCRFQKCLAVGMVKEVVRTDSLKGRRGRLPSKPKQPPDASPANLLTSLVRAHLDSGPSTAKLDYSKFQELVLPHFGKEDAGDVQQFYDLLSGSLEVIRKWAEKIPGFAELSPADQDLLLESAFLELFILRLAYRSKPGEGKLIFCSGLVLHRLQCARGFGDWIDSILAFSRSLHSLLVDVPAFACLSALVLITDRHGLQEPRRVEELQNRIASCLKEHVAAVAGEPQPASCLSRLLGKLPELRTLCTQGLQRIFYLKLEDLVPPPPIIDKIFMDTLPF

In the case of `O=C(/C=C/c1ccccc1)Nc1cc(-c2ccnc(N3CCC(CO)CC3)c2)ccn1`, the Activity (A549 [1]) is reported as 11.4%, the inhibition [2] is reported as “Dose-Dependent Effect” and the Activity (A549 [3]) is reported as 44.9%. It also gave a Tmax [4] of 8.4 min, an Activity (MDA-MB-231 [5]) of 30.34% and an Activity (A549 [6]) of 18.11%. The Activity (MDA-MB-231 [7]) was “Active”, the Activity (MDA-MB-231 [8]) was “Active” and the Activity (A549 [9]) was 59.43%. It also gave an Activity (A549 [10]) of 79.66%, an IC50 (A549 [11]) of 3.36 µM and an Activity (MDA-MB-231 [12]) of 82.2%. It also gave an Activity (A549 [13]) of 37.15%, an Activity (MDA-MB-231 [14]) of 69.2% and an IC50 (A549 [15]) of 0.201 µM. For the same compound, the Activity (MDA-MB-231 [16]) was 1.81%, the Activity (A549 [17]) was 31.99% and the Activity (A549 [18]) was 67.7%. The Activity [19] was “inactive”, the IC50 at 72 h [20] was 0.064 µM and the Activity (MDA-MB-231 [21]) was 27.02%. The Activity (A549 [22]) was 22.9%, the IC50 (A549 [23]) was 0.196 µM and the Activity (A549 [24]) was 51.91%. For the same compound, the Activity (MDA-MB-231 [25]) was 42.63%, the Activity (A549 [26]) was 2.76% and the Activity (A549 [27]) was 6.28%. It also gave an AUC(0-inf) [28] of 14.6 µg·h/mL and an Activity (MDA-MB-231 [29]) of 81.68%.
